From patent US20090312396A1, “METHODS FOR CANCER TREATMENT USING TAK1 INHIBITORS” (AstraZeneca AB, priority 2006, published 2009)

Experiments:
Experiment in all cases: AlamarBlue proliferation assay, GI50
Format in all cases: cell-based
KARPAS-620 = conditions: Homo sapiens, 72 hours, Table 5, read-out: GI50 KARPAS-620 plasma cell leukemia
Protocol: (§1) The TAK1 inhibitors are known in the art (see for example, WO 2003010158, WO 2003010163 and WO2004063186 the disclosures of which are incorporated by reference herein). All cell lines were plated at 10,000 cells/well in flat-bottomed 96 well plates and dosed with test compounds in triplicate over a 10 point dosing range from 0 to 30 μmolesL^−1. All cell lines were incubated with test compounds for a total of 72 hours. Background levels were determined for a control (undosed) plate within 2 hours of dosing test compounds. Following the dosing period, the extent of proliferation was measured by adding 1/10 (vol/vol) AlamarBlue reagent to every well and incubating the plates for a further 4 hours. The reaction was stopped by the addition of SDS to a final concentration of 0.1%. Fluorescence was measured at 545 nm (excitation) and 600 nm (emission). Growth inhibition 50 (GI50) values were determined for each test compound across the panel.
(§2) The experiments to generate the results for both Tables 5 and 6 were performed as described above.

SC-1 = conditions: Homo sapiens, 72 hours, Table 6, read-out: GI50 SC-1 FL
Protocol: as §1, §2

JEKO-1 = conditions: Homo sapiens, 72 hours, Table 6, read-out: GI50 JEKO-1 MCL
Protocol: as §1, §2

AM0-1 = conditions: Homo sapiens, 72 hours, Table 5, read-out: GI50 AM0-1 plasmacytoma
Protocol: as §1, §2

Ramos = conditions: Homo sapiens, 72 hours, Table 6, read-out: GI50 Ramos Burkitts Lymphoma
Protocol: as §1, §2

JJN-3 = conditions: Homo sapiens, 72 hours, Table 5, read-out: GI50 JJN-3 plasma cell leukemia
Protocol: as §1, §2

U937 = conditions: Homo sapiens, U-937, 72 hours, Table 6, read-out: GI50 U937 Histiocytic lymphoma
Protocol: as §1, §2

DERL 2 = conditions: Homo sapiens, T-cell, 72 hours, Table 6, read-out: GI50 DERL 2 T cell lymphoma
Protocol: as §1, §2

WSU DLCL2 = conditions: Homo sapiens, WSUDLCL2, 72 hours, Table 6, read-out: GI50 WSU DLCL2 B cell lymphoma
Protocol: as §1, §2

L-363 = conditions: Homo sapiens, 72 hours, Table 5, read-out: GI50 L-363 plasma cell leukemia
Protocol: as §1, §2

GI50 (KARPAS-620): 140 nM | GI50 (Ramos): 210 nM | GI50 (U937): 120 nM
Compound: COC(C)(C)CNCc1ccc(-c2cc(NC(N)=O)c(C(N)=O)s2)cc1 [Compound 4, 3-[(aminocarbonyl)amino]-5-(4-{[(2-methoxy-2-methylpropyl)amino]methyl}phenyl)thiophene-2-carboxamide]
GI50 (SC-1): 2880 nM | GI50 (JEKO-1): 290 nM | GI50 (AM0-1): 910 nM | GI50 (JJN-3): 520 nM | GI50 (DERL 2): 310 nM | GI50 (WSU DLCL2): 1950 nM | GI50 (L-363): 350 nM
